Test results from paper PMC9763054 (Nature, 2021).

Target: human CB1 (Homo sapiens, UniProt P21554)
Type: cell-based

Sequence of human CB1 (P21554 whole entry): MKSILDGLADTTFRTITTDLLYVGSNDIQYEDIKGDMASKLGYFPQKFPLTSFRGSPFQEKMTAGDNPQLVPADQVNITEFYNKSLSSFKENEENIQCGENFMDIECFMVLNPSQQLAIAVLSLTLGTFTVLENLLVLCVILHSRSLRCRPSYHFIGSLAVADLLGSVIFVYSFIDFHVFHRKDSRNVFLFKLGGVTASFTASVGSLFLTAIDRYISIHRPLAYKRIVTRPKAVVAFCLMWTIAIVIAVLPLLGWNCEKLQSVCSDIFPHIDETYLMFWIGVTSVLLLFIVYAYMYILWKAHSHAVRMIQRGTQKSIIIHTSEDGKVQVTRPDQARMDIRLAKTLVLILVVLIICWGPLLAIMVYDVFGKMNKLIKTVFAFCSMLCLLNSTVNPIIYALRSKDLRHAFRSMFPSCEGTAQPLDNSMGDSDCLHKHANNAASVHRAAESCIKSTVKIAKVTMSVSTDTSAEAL

SMILES: CCCCCCC(C)(C)c1ccc([C@@H]2C[C@H](O)CC[C@H]2CCCO)c(O)c1 [CP55940]
- CB1 potency measured in agonist mode: 0.017 µM
